Read-outs that look alike come from different tables or passages of the source.
Columns and labels:
N-type calcium channels = molecular target: T1, N-type calcium channels (Homo sapiens, UniProt Q00975); assay: Antagonistic activity on N-type calcium channels (fluorescence dye method, IMR-32 cells); assay type: cell-based; settings: for inhibition at 10 µM: 10 μM test compound, read-out: N-type inhibition (inhibition rate (%) at 10 μM); for IC50: 60 mM KCl stimulation, 1 μM Nifedipine, Table 20, read-out: N-type inhibition pIC50 (converted)
T1 construct: Human neuroblastoma cells IMR-32 were obtained from ATCC; host or cells: IMR-32 human neuroblastoma cells, differentiated with dibutyl cAMP and 5-bromodeoxyuridine
Method: (Test Example) Antagonistic Activity on N-Type Calcium Channels (Fluorescence Dye Method):
Human neuroblastoma cells IMR-32 were obtained from ATCC (American Type Culture Collection). The medium used was a phenol red-free Eagle minimum essential medium containing earle's salts (GIBCO) supplemented with 2 mM of L-glutamine (GIBCO), 1 mM of sodium pyruvate (pH 6.5) (GIBCO), antibiotic/antimicotic mixture (GIBCO) and 10% fetal calf serum (Cell Culture Technologies). Three ml of 1×10^5 cells/ml IMR-32 were spread on a 35 mm diameter glass dish (Iwaki Glass Co., Ltd.) which was treated with poly-L-lysin (SIGMA) and collagen (COLLAGEN VITROGEN 100, Collagen Co.). One day after cultivation, 1 mM (final concentration) of dibutyl cAMP and 2.5 μM (final concentration) of 5-bromodeoxyuridine (SIGMA) were added. After the culture for additional 10 to 14 days, the cells were subjected to the activity determination.
The medium for IMR-32 cells thus prepared was replaced with 1 ml of Phenol Red-free Eagle minimum essential medium (GIBCO) containing 2.5 μM fura-2/AM (Dojin Kagaku, Co.) and earle's salts supplement, and the incubation was conducted at 37° C. for 30 minutes. Then the medium was replaced with a recording medium (20 mM of HEPES-KOH, 115 mM of NaCl, 5.4 mM of KCl, 0.8 mM of MgCl2, 1.8 mM of CaCl2 and 13.8 mM of D-glucose). Antagonistic activity on N-type calcium channels was determined and analyzed using a fluorescence microscope (Nikon Corporation) and an image analysis device ARGUS 50 (Hamamatsu Photonics). In particular, a recording medium (20 mM of HEPES-KOH, 115 mM of NaCl, 5.4 mM of KCl, 0.8 mM of MgCl2, 1.8 mM of CaCl2 and 13.8 mM of D-glucose) containing 1 μM of Nifedipine was given to the cells by reflux by a Y-tube method for 2 minutes. Then a stimulating agent containing 60 mM of potassium chloride was rapidly given by the Y-tube method. The calcium concentration change in the cells was examined in terms of N-type calcium channel activity. Stimulating agents containing 60 mM of potassium chloride and 0.1, 1 or 10 μM of test compound were successively and rapidly given to the same cells by the Y-tube method to determine the change in calcium concentration in the cells on this occasion. Antagonistic activity on N-type calcium channel was thus calculated from the inhibition rates.
The same procedure as that of the above-described tests of the N-type calcium channel antagonistic activity of the compounds obtained in the Examples was repeated except for the following changes: stimulating agents containing 60 mM of potassium chloride and 0.1, 1 or 10 μM of test compound were successively and rapidly given by the Y-tube method. A change in calcium concentration in the cells was determined.

L-type calcium channels = molecular target: T2, L-type calcium channels (Rattus norvegicus, UniProt P22002); assay: Antagonistic activity on L-type calcium channels (relaxation of KCl-induced contraction of isolated rat thoracic aorta); settings: isolated Wistar rat thoracic aorta; for L-type inhibition pIC50: Table 21
T2 construct: The thoracic aorta isolated from a Wistar rat was cut to obtain ring-shaped samples; from tissue; host or cells: isolated Wistar rat thoracic aorta rings, endothelium removed
Method: (Test Example) Antagonistic Activity on L-Type Calcium Channels:
The activity of the dihydropyrimidine derivatives of the present invention to inhibit L-type calcium channels was determined by the following method in which the relaxation reaction on the KCl-induced contraction of isolated rat thoracic aorta was employed.
1) Method of Preparation of Rat Thoracic Aorta:
The thoracic aorta isolated from a Wistar rat was cut to obtain ring-shaped samples having a width of about 3 mm. The endothelial cells of the samples were mechanically removed. The samples were then suspended in a strain gage in Tyrode's solution (158.3 mM of NaCl, 4.0 mM of KCl, 1.05 mM of MgCl2, 0.42 mM of NaH2PO4, 10 mM of NaHCO, 2 mM of CaCl2 and 5 mM of glucose) in which a gaseous mixture of O2 (95%) and CO2 (5%) was introduced. A static tension of 2 g was applied hereto. The tension of the blood vessel was amplified with a transducer and a tension amplifier (EF-601G; Nihon Koden Corporation) and recorded with a multi-pen recorder (Rikadenki Kogyo Co., Ltd.). The experiments were conducted at 37° C.
2) Measurment of Relaxation Response Against KCl-Induced Contraction:
After the tension had been stabilized, the solution in the sample tank was replaced with High K^+ Tyrode's solution (112.3 mM of NaCl, 50 mM of KCl, 1.05 mM of MgCl2, 0.42 mM of NaH2PO4, 10 mM of NaHCO3, 2 mM of CaCl2 and 5 mM of glucose) to conduct the contraction reaction. Thirty minutes after, the solution in the sample tank was replaced with the normal Tyrode's solution. The solution in the sample tank was again replaced with the High K^+ Tyrode's solution and the contraction reaction was observed. After attaining the maximum contraction reaction, the test compound was cumulatively added at intervals of […] to attain concentrations of 10^−9, 10^−8, 10^−7 and 10^−6 M. The inhibitory rate of the test compound on the maximum contraction reaction was employed as the index of the inhibition activity on L-type calcium channels.

SD rats = assay: Analgesic action in the formalin test; assay type: in vivo, rat; settings: 3 mg/kg p.o. 3 hours before formalin injection, counted for 60 minutes, average±standard error, control group 116 ± 8
Method: (Test Example) Determination of Analgesic Action (Analgesic Action in the Formalin Test) 1) Preparation of Solution of a Test Compound and its Administration
The compound was weighed and ground in a mortar. While grinding the powder, 0.5% tragacanth solution was added thereto so that a suspension was prepared to have a concentration of 0.6 mg/ml.
Three hours before the formalin injection, the compound suspension was orally administered to SD rats at a volume of 5 ml/kg (dosage; 3 mg/kg, p.o.). In the control group, 0.5% tragacanth solution was orally administered to SD rats at a volume of 5 ml/kg 3 hours before formalin injection.
2) Determination of Analgesic Action in the Formalin Test
The SD rats to which the compound was administered were introduced to a capsule. They were settled under halothane (2 to 4% in 3 L/min of oxygen gas flow rate) and 100 μl of 5% formalin solution was injected subcutaneously to their dorsal surface of left legs. After injection, determination was started when the rats came out from the anesthetic state (based on recovery of righting reflex). The number of flinching under the influence of formalin injection was counted for 60 minutes (Reference: J. Neurosci. 14: 4882-4890 (1994)). The results are shown as “average±standard error” in Table 22.

[1] = Table 20, read-out: L-type inhibition pIC50 (converted)
[2] = Table 21, read-out: L-type inhibition pIC50 (converted)

T1 sequence (Q00975 whole entry): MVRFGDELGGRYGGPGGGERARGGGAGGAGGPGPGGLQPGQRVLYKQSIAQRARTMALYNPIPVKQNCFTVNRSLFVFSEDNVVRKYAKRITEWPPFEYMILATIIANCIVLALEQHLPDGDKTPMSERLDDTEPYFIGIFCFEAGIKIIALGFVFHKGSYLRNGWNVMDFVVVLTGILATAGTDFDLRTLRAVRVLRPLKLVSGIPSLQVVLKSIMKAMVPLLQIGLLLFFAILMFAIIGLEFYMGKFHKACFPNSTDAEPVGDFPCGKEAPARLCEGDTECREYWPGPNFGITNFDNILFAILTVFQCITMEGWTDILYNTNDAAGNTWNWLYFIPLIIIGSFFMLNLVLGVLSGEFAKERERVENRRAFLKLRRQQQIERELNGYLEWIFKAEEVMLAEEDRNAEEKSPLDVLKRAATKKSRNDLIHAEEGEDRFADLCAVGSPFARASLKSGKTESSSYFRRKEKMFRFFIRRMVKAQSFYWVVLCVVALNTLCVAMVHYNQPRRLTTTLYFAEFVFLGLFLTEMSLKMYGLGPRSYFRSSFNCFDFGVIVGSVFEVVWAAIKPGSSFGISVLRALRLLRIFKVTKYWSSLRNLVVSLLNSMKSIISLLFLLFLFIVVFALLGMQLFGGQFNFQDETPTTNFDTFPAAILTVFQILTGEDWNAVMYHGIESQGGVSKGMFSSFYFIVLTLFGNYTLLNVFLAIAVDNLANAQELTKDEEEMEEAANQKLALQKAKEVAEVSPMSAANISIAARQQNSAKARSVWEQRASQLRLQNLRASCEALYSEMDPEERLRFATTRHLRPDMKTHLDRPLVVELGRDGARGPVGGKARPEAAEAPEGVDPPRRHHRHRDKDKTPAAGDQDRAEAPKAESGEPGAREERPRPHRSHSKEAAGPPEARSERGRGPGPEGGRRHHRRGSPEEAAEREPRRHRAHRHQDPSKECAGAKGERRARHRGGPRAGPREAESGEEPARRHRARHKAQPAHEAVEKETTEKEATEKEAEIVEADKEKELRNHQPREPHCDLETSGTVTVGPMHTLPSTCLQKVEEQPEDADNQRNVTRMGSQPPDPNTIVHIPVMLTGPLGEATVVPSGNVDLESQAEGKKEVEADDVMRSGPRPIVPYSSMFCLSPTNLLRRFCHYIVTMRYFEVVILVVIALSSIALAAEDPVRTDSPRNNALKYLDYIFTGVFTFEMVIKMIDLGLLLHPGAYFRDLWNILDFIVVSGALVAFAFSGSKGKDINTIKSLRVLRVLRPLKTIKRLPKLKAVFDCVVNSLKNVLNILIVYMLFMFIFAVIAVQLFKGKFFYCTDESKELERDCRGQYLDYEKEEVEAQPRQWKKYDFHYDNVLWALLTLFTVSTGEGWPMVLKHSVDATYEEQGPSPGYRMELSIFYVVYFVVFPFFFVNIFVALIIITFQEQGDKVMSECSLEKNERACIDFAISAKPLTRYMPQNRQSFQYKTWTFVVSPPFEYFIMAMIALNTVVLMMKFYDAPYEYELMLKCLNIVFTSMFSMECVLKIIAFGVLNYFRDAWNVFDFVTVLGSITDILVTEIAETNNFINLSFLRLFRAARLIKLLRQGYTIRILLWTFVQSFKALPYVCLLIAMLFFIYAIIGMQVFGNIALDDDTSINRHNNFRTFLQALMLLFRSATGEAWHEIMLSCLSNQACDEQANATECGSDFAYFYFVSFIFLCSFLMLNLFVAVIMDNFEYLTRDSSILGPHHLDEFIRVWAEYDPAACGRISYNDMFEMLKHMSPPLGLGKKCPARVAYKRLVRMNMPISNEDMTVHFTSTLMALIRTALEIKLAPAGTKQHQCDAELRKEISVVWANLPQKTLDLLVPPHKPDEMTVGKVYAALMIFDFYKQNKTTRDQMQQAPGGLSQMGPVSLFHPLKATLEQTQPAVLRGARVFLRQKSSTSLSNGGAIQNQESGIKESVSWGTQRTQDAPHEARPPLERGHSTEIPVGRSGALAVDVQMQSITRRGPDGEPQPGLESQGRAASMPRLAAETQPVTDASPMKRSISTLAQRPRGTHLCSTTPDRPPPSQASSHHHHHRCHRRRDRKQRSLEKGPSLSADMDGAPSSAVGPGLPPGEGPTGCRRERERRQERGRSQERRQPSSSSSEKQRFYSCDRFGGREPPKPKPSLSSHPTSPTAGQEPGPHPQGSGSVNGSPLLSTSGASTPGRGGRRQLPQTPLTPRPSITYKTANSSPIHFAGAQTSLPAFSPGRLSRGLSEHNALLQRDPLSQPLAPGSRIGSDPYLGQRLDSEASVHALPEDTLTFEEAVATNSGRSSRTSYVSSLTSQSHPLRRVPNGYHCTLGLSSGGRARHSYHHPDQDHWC
T1 sequence (Q02641 whole entry partner): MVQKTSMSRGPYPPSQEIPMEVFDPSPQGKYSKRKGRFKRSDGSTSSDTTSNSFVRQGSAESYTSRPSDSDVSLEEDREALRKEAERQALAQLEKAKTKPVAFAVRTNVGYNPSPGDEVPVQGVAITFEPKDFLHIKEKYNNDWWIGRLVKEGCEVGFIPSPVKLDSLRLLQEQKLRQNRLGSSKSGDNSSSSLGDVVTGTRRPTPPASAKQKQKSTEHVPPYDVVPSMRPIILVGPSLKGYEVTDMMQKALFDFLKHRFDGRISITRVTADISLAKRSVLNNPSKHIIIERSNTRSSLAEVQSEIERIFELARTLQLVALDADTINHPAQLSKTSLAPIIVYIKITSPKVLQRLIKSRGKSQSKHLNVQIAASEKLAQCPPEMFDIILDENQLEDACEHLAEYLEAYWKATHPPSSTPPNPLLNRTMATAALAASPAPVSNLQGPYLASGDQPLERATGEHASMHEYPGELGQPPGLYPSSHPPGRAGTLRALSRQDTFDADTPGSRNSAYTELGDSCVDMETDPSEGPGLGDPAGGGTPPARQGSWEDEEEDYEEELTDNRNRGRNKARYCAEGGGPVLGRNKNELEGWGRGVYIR
T1 sequence (P54289 25-956 partner limits assumed): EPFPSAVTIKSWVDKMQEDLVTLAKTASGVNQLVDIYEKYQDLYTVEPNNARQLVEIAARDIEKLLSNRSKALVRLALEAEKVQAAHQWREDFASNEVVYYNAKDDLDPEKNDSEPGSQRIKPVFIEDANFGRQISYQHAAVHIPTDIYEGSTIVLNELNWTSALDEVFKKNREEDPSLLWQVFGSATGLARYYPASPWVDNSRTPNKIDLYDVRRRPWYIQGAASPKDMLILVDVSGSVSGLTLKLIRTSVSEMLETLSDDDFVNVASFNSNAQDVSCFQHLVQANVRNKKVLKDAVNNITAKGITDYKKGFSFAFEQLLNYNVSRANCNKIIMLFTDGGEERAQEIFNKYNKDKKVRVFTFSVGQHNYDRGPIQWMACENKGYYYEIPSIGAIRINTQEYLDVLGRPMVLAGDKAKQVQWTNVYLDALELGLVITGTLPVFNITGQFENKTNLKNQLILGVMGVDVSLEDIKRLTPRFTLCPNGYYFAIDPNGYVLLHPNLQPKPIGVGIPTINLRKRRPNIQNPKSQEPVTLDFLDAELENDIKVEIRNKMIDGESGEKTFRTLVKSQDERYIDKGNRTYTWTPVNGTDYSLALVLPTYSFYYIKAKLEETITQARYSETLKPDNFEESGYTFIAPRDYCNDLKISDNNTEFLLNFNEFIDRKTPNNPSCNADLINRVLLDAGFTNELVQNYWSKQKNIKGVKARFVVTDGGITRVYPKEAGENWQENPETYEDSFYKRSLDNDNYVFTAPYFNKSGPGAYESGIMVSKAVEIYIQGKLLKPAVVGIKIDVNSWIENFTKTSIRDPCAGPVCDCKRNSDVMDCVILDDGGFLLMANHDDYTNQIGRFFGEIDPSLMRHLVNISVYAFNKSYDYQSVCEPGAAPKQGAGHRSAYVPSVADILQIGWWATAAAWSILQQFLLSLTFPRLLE
T1 sequence (P54289 957-1103 partner limits assumed): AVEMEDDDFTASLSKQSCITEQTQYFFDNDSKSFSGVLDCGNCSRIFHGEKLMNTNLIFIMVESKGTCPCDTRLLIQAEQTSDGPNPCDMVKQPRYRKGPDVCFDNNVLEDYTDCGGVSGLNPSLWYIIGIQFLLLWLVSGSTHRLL

Row | Structure (SMILES) | inhibition at 10 µM (N-type calcium channels) | IC50 (N-type calcium channels) | IC50 (L-type calcium channels; [1]) | L-type inhibition pIC50 (L-type calcium channels) | IC50 (L-type calcium channels; [2]) | Flinching (number) (SD rats)
1 | CSc1nc(C)c(C(=O)NC/C=C/c2ccccc2)c(-c2cccc(Cl)c2)n1 [Example 1, 4-(3-chlorophenyl)-6-methyl-2-(methylthio)-N-(3-phenyl-2-propen-1-yl)-5-pyrimidinecarboxamide] | 52% | 1580 nM | 2510 nM | 5.6 |  | 
2 | CSc1nc(C)c(C(=O)NCCCc2ccccc2)c(-c2cccc(Cl)c2)n1 [Example 16, 4-(3-chlorophenyl)-6-methyl-2-(methylthio)-N-(3-phenylpropyl)-5-pyrimidinecarboxamide] | 58% | 2000 nM | 3160 nM | 5.5 |  | 
3 | CSc1nc(C)c(C(=O)NCCCc2ccccc2)c(-c2ccc(C)cc2C)n1 [Example 93, 4-(2,4-dimethylphenyl)-6-methyl-2-(methylthio)-N-(3-phenylpropyl)-5-pyrimidinecarboxamide] | 63% |  |  |  | 5010 nM | 39 ± 11 number
4 | CCc1nc(C)c(C(=O)NCCCc2ccccc2)c(-c2cc(Cl)cc(Cl)c2)n1 [Example 103, 2-ethyl-4-(3,5-dichlorophenyl)-6-methyl-N-(3-phenylpropyl)-5-pyrimidinecarboxamide] | 74% |  |  |  | 3980 nM | 
5 | CSc1nc(C)c(C(=O)NCCCc2ccccc2)c(-c2c(Cl)cccc2Cl)n1 [Example 110, 4-(2,6-dichlorophenyl)-6-methyl-2-(methylthio)-N-(3-phenylpropyl)-5-pyrimidinecarboxamide] | 77% |  |  |  | 2510 nM | 
6 | Cc1nc(C)c(C(=O)N2CCNCC2)c(-c2cccc(Cl)c2)c1C(=O)OCCC(c1ccccc1)c1ccccc1 [Example 122, 4-(3-chlorophenyl)-2,6-dimethyl-5-(piperazine-1-carbonyl)nicotinic acid (3,3-diphenylpropyl) ester] | 56% | 1580 nM | 1000 nM | 6.0 |  | 61 ± 16 number
7 | Cc1nc(C)c(C(=O)N2CCN(C)CC2)c(-c2cccc(Cl)c2)c1C(=O)OCCC(c1ccccc1)c1ccccc1 [Example 125, 4-(3-chlorophenyl)-2,6-dimethyl-5-(4-methylpiperazine-1-carbonyl)nicotinic acid (3,3-diphenylpropyl) ester] | 70% |  |  |  | 1260 nM | 62 ± 25 number

From patent publication US7288544B2, “Pyrimidine compounds useful as N-type calcium channel antagonists” (Ajinomoto Co., Inc., priority 2000, dated 2007)
